The values below are quoted from earlier work in patent US20250345461A1, “METHOD FOR REPAIRING HAIR CYCLE-RELATED GENES AND METHOD FOR TREATING HAIR CYCLE-RELATED DISEASES USING MIR-520D-5P” (LIVIUS PTE. LTD., priority 2021, published 2025).

Counter-ions that a name gives are not always drawn. Like-named read-outs stand apart in the source and are kept apart here.

In the case of `CCCNC(=O)NS(=O)(=O)c1ccc(Cl)cc1` [Chlorpropamide], the “Maximum effective blood concentration at the time of administration or concentration in an external preparation in known indications” value (from here on “Maximum effective blood concentration”) (Type 2 diabetes) is “Administration: 30 μg/mL”.

For `CCCCC(CC)CNC(=N)NC(=N)NCCCCCCNC(=N)NC(=N)NCC(CC)CCCC` (stereo not drawn) [Alexidine], the “Inhibition of cancer growth (concentration in known indications)” value (Inhibition of cancer growth) was “Inhibition of cancer growth: 1 mM”.

`C=C(CC)C(=O)c1ccc(OCC(=O)O)c(Cl)c1Cl` [Ethacrynic acid]: the “Maximum effective blood concentration” value (Edematous diseases) was “Administration: 100 μM”.

Consider Colistin, for which, under “Escherichia coli, Shigella, multidrug-resistant Pseudomonas aeruginosa, infectious enteritis”, the “Maximum effective blood concentration” value is on record as “Administration: 4.4 μg/mL”.

As for `CCOc1nc2cccc(C(=O)O)c2n1Cc1ccc(-c2ccccc2-c2nnn[nH]2)cc1` [Candesartan], where the note is “Hypertension”, the “Maximum effective blood concentration” value is on record as “Administration: 75 ng/mL”.

For `C=CCOc1ccccc1OCC(O)CNC(C)C` (stereo not drawn) [Oxprenolol], the “Maximum effective blood concentration” value (Tachyarrhythmia, angina) is reported as “Administration: 30.18 μg/μL”.

On to `CC(C)NCC(O)COc1ccc(CCOCC2CC2)cc1` (stereo not drawn) [Betaxolol], for which the “Maximum effective blood concentration” value (Essential hypertension, parenchymal renal hypertension, angina, glaucoma, ocular hypertension) is on record as “Administration: 41.8 ng/mL”.

For `CN[C@H](CC(C)C)C(=O)N[C@H]1C(=O)N[C@@H](CC(N)=O)C(=O)N[C@H]2C(=O)N[C@H]3C(=O)N[C@H](C(=O)N[C@H](C(=O)O)c4cc(O)cc(O)c4-c4cc3ccc4O)[C@H](O)c3ccc(c(Cl)c3)Oc3cc2cc(c3O[C@@H]2O[C@H](CO)[C@@H](O)[C@H](O)[C@H]2O[C@H]2C[C@](C)(N)[C@H](O)[C@H](C)O2)Oc2ccc(cc2Cl)[C@H]1O` [Vancomycin], for the setting “MRSA infection”, the “Maximum effective blood concentration” value is “Administration: 30 μg/mL”.

With `CC(C)NCC(O)COc1ccc(COCCOC(C)C)cc1` (stereo not drawn) [Bisoprolol, Bisoprolol fumarate], the “Maximum effective blood concentration” value (Chronic heart failure due to essential hypertension, angina, ischemic heart disease, and dilated cardiomyopathy) was “Administration: 100 ng/mL”.
